Columns and labels:
[1] = test system: cultured fetal murine myocardial cells; experiment: Average rate of myocyte contraction by video edge motion detector; format: cell-based, B6D2F1 fetal mice; settings: control transfected cells in the presence of 10^-3 M isoproterenol
Procedure: (§1) Cultured fetal murine myocardial cells were prepared as previously described (Iwaki, K. et al., J Biol Chem., 265(23):13809-17 (1990); Sen, A. et al., J Clin Invest., 82 (4):1333-8 (1988)). Myocytes from ventricles of 17.5 day old B6D2F1 fetal mice were fragmented with a straight-edge razor. The tissue was then digested with 0.5 mg/ml collagenase II (Worthington Biochemical Corp., Freehold, N.J.) and 1.0 mg/ml pancreatin (Sigma Chemical Co., St. Louis, Mo.) in ADS buffer (116 mM NaCl, 20 mM HEPES, 1 MM NaH2PO4, 5.5 mM glucose, 5.4 mM KCl, 0.8 mM MgSO4, pH 7.4) at 37° C. for 10 min. The cells were centrifuged at 700 g at 4° C. for 5 min. The cells were then plated onto 48-well plates (Falcon Labware, Cockeysville, Md.) precoated with 1% gelatin or onto 25 mm^2 square coverslips precoated with 1% gelatin and 20 μg/ml laminin at a density of 10^5 cell/ml in Dulbecco's modified Eagle's media (DMEM) supplemented with 10% fetal calf serum (FCS), and Streptomycin 100 μg/ml, and Penicillin (500 μg/mL). The myocytes were grown at 37° C. in 5% CO2.
The transfection of myocytes with lipofection was optimized. […]
The average rate of myocyte contraction was quantitated by motion detector under both baseline and 10^−3 M isoproterenol. […] The statistical significance of the increased rate of myocyte contraction was determined by Student's t-Test analysis.

[2] = test system: cultured fetal murine myocardial cells; experiment: In vitro myocyte contractile recruitment: percentage of beating and fast beating GFP-positive transfected myocytes; format: cell-based, B6D2F1 fetal mice
Procedure: as §1
The transfection of myocytes with lipofection was optimized. Myocytes were plated as described above and grown overnight. The β2AR, LacZ, or GFP expression circular vectors (1:2.5 M/M; 0.125 μg total DNA/well) were incubated with Lipofectamine (Life Technologies) (12.5 μl/well) in Opti-Mem I (Life Technologies) reduced serum medium(12.5 μl/well) for 30 min at 25° C. After incubation, DMEM (100 μl/well) was added. The myocyte cultures were washed with PBS twice, the Lipofectamine-DNA mixtures were added, and the cultures incubated at 37° C. After 4 hours, an equal volume of DMEM with 20% FCS was added to the cultures. The cultures were incubated overnight and the medium was changed to DMEM with 10% FCS.
The myocytes were assayed 48 hr after transfection. […]
The percentage of beating myocytes was determined for cells transfected with either the β2AR expression vector or the control construct. […] In addition, the percentage of myocytes that were beating faster than 60 beats per minute (bpm) was determined in identical fashion. […]

CC(C)NCC(O)c1ccc(O)c(O)c1 (stereo not shown) [isoproterenol]
average rate of contraction [1]: 75+/−18 bpm | percentage of myocytes contracting ([2]; control LacZ transfected myocytes, increasing concentrations of isoproterenol (0-10^-3 M)): 69% | percentage of myocytes with chronotropic rates greater than 60 bpm (fast beating cells) ([2]; control transfected cells at 10^-3 M isoproterenol): 54% | effect on number of contracting myocytes ([2]; β2AR transfected myocytes, addition of isoproterenol): failed to increase

Source: US6776987B1, “Enhancement of cardiac chronotropy” (Massachusetts Institute of Technology, priority 1998, dated 2004)
